In US20050282840A1, “Methods of modulating neurotrophin-mediated activity” (PainCeptor Pharma Corporation, priority 2004, published 2005):
Where two headings read alike, the source gives them in different places.

How the values were obtained:
[1] = target: T1, p75^NTR receptors (PC12 cells) (Rattus norvegicus, UniProt P07174); test: Basic screening assay: binding of 125I-BDNF to PC12 cells; conditions: read-out: BDNF Activity % Maximal Binding
T1 construct: endogenous in cells; host or cells: PC12 cells
T1 sequence (P07174 30-425): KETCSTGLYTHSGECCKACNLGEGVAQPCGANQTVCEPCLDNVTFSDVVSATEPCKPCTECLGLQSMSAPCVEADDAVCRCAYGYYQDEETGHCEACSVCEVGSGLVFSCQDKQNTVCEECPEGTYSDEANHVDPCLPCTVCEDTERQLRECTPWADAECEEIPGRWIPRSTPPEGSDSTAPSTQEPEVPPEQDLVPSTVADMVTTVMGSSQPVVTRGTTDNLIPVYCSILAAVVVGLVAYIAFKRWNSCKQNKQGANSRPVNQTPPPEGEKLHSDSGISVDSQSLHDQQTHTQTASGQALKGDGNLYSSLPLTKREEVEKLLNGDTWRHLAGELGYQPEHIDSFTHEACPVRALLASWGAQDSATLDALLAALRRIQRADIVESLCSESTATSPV
T1 sequence (P23560 129-247 partner): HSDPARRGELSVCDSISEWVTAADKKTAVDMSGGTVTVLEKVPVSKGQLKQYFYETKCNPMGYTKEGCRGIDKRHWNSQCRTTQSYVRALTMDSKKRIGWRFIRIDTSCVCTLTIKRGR
Procedure: (§1) The compounds were screened for effects on binding of ^125I-BDNF or ^125I-NGF to PC12 cells (p75^NTR receptors), and those that inhibited binding were further tested to determine the EC50 for this inhibition.
(§2) PC12 cells were cultured and prepared for binding assays as described in Example 1.
(§3) Lypophilized Peprotech human recombinant BDNF (Cedarlane Laboratories, Toronto, Canada, cat. # PE 450-02-10) was reconstituted under sterile conditions to 3.5 μM in sterile HKR/1%BSA, and either used immediately or stored in aliquots of 20 μl at −80° C. Immediately prior to use, a 15 nM (30×) solution of ^125I-BDNF or ^125I-NGF was prepared in HKR buffer, and was used at 0.5 nM final concentration.
(§4) Test Compounds were dissolved to 10 mM in DMSO, and those that were not initially soluble were warmed to 40-50° C. and vortexed. Those compounds that were still not in solution were reported as such. Compounds were then stored in this form at −20° C. until use. Immediately before experiments, 100 mM compounds were diluted to 10 mM in DMSO (1:10), followed by a further dilution to 1 mM (1:10) with distilled water, and a further dilution to 500 μM (1:1) with HKR.
(§5) Assays to determine maximum binding (Bmax), non-specific binding (NSB), and binding in the presence of each test compound (e.g., x, y) were performed at least in duplicate. In a total volume of 300 μL, 4×10^6 PC12 cells were incubated, rotating for 2 h at 4° C. with the following:
(§6) At the conclusion of the binding reaction, 100 μL aliquots of the reaction mixtures were carefully layered over 200 μL of a 10% glycerol solution in a 0.4 mL tube, and subjected to centrifugation in a microcentrifuge for 2 minutes at half maximum speed. The cell pellets containing the bound ^125I-BDNF or ^125I-NGF were then measured using a gamma counter. The mean values of the replicates were then calculated to determine the value for maximum binding (Bmax) and nonspecific binding (NSB), and binding in the presence of test compound at 50 μM (Bx). Specific binding (SB) was measured by subtracting the NSB from the Bmax.

[2] = tested on: p75^NTR receptors (PC12 cells); test: Basic screening assay: binding of 125I-NGF to PC12 cells; conditions: test compound 50 μM, 0.5 nM 125I-NGF, PC12 cells, 2 h at 4° C., specific binding as percent of control
Procedure: as §1, §2
Lyophilized Serotec mouse 2.5S NGF (Cedarlane Laboratories, Toronto, Canada, cat. # PMP 04Z) was reconstituted under sterile conditions to 1 mg/mL (38 μM) in sterile 0.2% acetic acid, and 100 μL or 50 μL aliquots were stored frozen at −80° C.
as §3, §4, §5
as §6, with “Bmax. Specific binding in the presence of the test compound (SBx) was determined by subtracting the NSB from the Bx for each test compound; and each SBx was divided by SB and multiplied by 100 to give the specific binding in the presence of the compound as a percent of control specific binding.” for “Bmax.”

[3] = Table 4, test compound 50 μM, 0.5 nM 125I-BDNF, PC12 cells, 2 h at 4° C., specific binding as percent of control
[4] = Table 1, test compound 50 μM, 0.5 nM 125I-BDNF, PC12 cells, 2 h at 4° C., specific binding as percent of control

Structure (SMILES): O=C1NC(=S)N/C1=C/c1ccc(-c2ccc(C(=O)O)c(Cl)c2)o1 [Compound 108, 2-Chloro-4-[5-(5-oxo-2-thioxo-imidazolidin-4-ylidenemethyl)furan-2-yl]benzoic acid]
- activity at 50 µM [1, 3]: > 50%
- NGF Activity % Maximal Binding ([2]; Table 4): * (50 < *)

Structure (SMILES): COc1cc([N+](=O)[O-])ccc1-c1ccc(/C=C2/SC(=S)N(C)C2=O)o1 [Compound 60, 5-[5-(2-Methoxy-4-nitrophenyl)furan-2-ylmethylene]-3-methyl-2-thioxo-thiazolidin-4-one]
- activity at 50 µM [1, 4]: 40 to 50%
- NGF Activity % Maximal Binding ([2]; Table 1): * (50 < *)

Structure (SMILES): O=C1NC(=S)S/C1=C/c1ccc(-c2ccc([N+](=O)[O-])cc2Cl)o1 [Compound 5, 5-[5-(2-Chloro-4-nitrophenyl)furan-2-ylmethylene]-2-thioxo-thiazolidin-4-one]
- activity at 50 µM [1, 4]: 0 to 10%
- NGF Activity % Maximal Binding ([2]; Table 1): * (50 < *)

Structure (SMILES): COCCN1C(=O)C(=Cc2ccc(-c3ccc([N+](=O)[O-])cc3)o2)SC1=S [Compound 120, 3-(2-Methoxy-ethyl)-5-[5-(4-nitrophenyl)furan-2-ylmethylene]-2-thioxo-thiazolidin-4-one]
- activity at 50 µM [1, 3]: > 50%
- NGF Activity % Maximal Binding ([2]; Table 4): * (50 < *)

Structure (SMILES): CCOC(=O)CN1C(=O)S/C(=C/c2ccc(-c3cccc([N+](=O)[O-])c3)o2)C1=O [Compound 116, {5-[5-(3-Nitrophenyl)furan-2-ylmethylene]-2,4-dioxo-thiazolidin-3-yl}-acetic acid ethyl ester]
- activity at 50 µM [1, 3]: > 50%
- NGF Activity % Maximal Binding ([2]; Table 4): * (50 < *)

Structure (SMILES): CC1=NN(c2ccc(F)cc2)C(=O)/C1=C\c1ccc(-c2ccc(C(=O)O)cc2)o1 [Compound 49, 4-{5-[1-(4-Fluorophenyl)-3-methyl-5-oxo-1,5-dihydro-pyrazol-4-ylidenemethyl]furan-2-yl}benzoic acid]
- activity at 50 µM [1, 4]: 30 to 40%
- NGF Activity % Maximal Binding ([2]; Table 1): * (50 < *)

Structure (SMILES): O=C1NC(=O)C(=Cc2ccc(-c3ccc([N+](=O)[O-])cc3)o2)C(=O)N1 [Compound 26, 5-[5-(4-Nitrophenyl)furan-2-ylmethylene]-pyrimidine-2,4,6-trione]
- activity at 50 µM [1]: 0 to 10%
- NGF Activity % Maximal Binding ([2]; Table 1): * (50 < *)

Structure (SMILES): Cc1cccc(N2NC(=O)/C(=C/c3ccc(-c4ccc(Cl)c([N+](=O)[O-])c4)o3)C2=O)c1 [Compound 44, 4-[5-(4-Chloro-3-nitrophenyl)furan-2-ylmethylene]-1-m-tolyl-pyrazolidine-3,5-dione]
- activity at 50 µM [1, 4]: 30 to 40%
- NGF Activity % Maximal Binding ([2]; Table 1): * (50 < *)

Structure (SMILES): O=C(O)CN1C(=O)C(=Cc2ccc(-c3ccc([N+](=O)[O-])cc3)o2)SC1=S [Compound 38, {5-[5-(4-Nitrophenyl)furan-2-ylmethylene]-4-oxo-2-thioxo-thiazolidin-3-yl}-acetic acid]
- activity at 50 µM [1, 4]: 20 to 30%
- NGF Activity % Maximal Binding ([2]; Table 1): * (50 < *)

Structure (SMILES): CN1C(=O)NC(=O)C(=Cc2ccc(-c3cccc([N+](=O)[O-])c3)o2)C1=O [Compound 78, 1-Methyl-5-[5-(3-nitrophenyl)furan-2-ylmethylene]-pyrimidine-2,4,6-trione]
- activity at 50 µM [1]: 10 to 20%
- NGF Activity % Maximal Binding ([2]; Table 2): X (40 < X < 50)

Structure (SMILES): Cc1ccc([N+](=O)[O-])cc1-c1ccc(/C=C2/SC(=S)NC2=O)o1 [Compound 2, 5-[5-(2-Methyl-5-nitrophenyl)furan-2-ylmethylene]-2-thioxo-thiazolidin-4-one]
- activity at 50 µM [1, 4]: 0 to 10%
- NGF Activity % Maximal Binding ([2]; Table 1): * (50 < *)

Structure (SMILES): CSC1=NC(=Cc2ccc(-c3ccc([N+](=O)[O-])cc3)o2)C(=O)S1 [Compound 111, 2-Methylsulfanyl-4-[5-(4-nitrophenyl)furan-2-ylmethylene]-4H-thiazol-5-one]
- activity at 50 µM [1, 3]: > 50%
- NGF Activity % Maximal Binding ([2]; Table 4): * (50 < *)

Structure (SMILES): O=C1NC(=S)NC(=O)C1=Cc1ccc(-c2ccc(C(=O)O)cc2)o1 [Compound 6, 4-[5-(4,6-Dioxo-2-thioxo-tetrahydro-pyrimidin-5-ylidenemethyl)furan-2-yl]benzoic acid]
- activity at 50 µM [1]: 0 to 10%
- NGF Activity % Maximal Binding ([2]; Table 1): * (50 < *)

Structure (SMILES): COC(=O)c1cccc(-c2ccc(/C=C3/NC(=O)N(Cc4ccccc4F)C3=O)o2)c1C [Compound 139, 3-{5-[1-(2-Fluorobenzyl)-2,5-dioxo-imidazolidin-4-ylidenemethyl]furan-2-yl}-2-methylbenzoic acid methyl ester]
- activity at 50 µM [1, 3]: > 50%
- NGF Activity % Maximal Binding ([2]; Table 4): * (50 < *)

Structure (SMILES): Cc1ccc(N2NC(=O)C(=Cc3ccc(-c4ccc([N+](=O)[O-])cc4Cl)o3)C2=O)cc1C [Compound 23, 4-[5-(2-Chloro-4-nitrophenyl)furan-2-ylmethylene]-1-(3,4-dimethylphenyl)-pyrazolidine-3,5-dione]
- activity at 50 µM [1, 4]: 0 to 10%
- NGF Activity % Maximal Binding ([2]; Table 1): * (50 < *)

Structure (SMILES): CCOC(=O)CN1C(=O)S/C(=C\c2ccc(-c3ccc([N+](=O)[O-])cc3)o2)C1=O [Compound 117, {5-[5-(4-Nitrophenyl)furan-2-ylmethylene]-2,4-dioxo-thiazolidin-3-yl}-acetic acid ethyl ester]
- activity at 50 µM [1, 3]: > 50%
- NGF Activity % Maximal Binding ([2]; Table 4): * (50 < *)

Structure (SMILES): NS(=O)(=O)c1cccc(-c2ccc(/C=C3/SC(=S)N(CC(=O)O)C3=O)o2)c1 [Compound 74, {4-oxo-5-[5-(3-sulfamoylphenyl)furan-2-ylmethylene]-2-thioxo-thiazolidin-3-yl}-acetic acid]
- activity at 50 µM ([1]; Table 2, test compound 50 μM, 0.5 nM 125I-BDNF, PC12 cells, 2 h at 4° C., specific binding as percent of control): 0 to 10%
- NGF Activity % Maximal Binding ([2]; Table 2): X (40 < X < 50)

Structure (SMILES): CCOC(=O)CN1C(=O)S/C(=C/c2ccc(-c3ccc([N+](=O)[O-])cc3Cl)o2)C1=O [Compound 132, {5-[5-(2-Chloro-4-nitrophenyl)furan-2-ylmethylene]-2,4-dioxo-thiazolidin-3-yl}-acetic acid ethyl ester]
- activity at 50 µM [1, 3]: > 50%
- NGF Activity % Maximal Binding ([2]; Table 4): * (50 < *)

Structure (SMILES): O=C1NN(c2ccc(F)cc2)C(=O)C1=Cc1ccc(-c2ccc([N+](=O)[O-])cc2)o1 [Compound 119, 1-(4-Fluorophenyl)-4-[5-(4-nitrophenyl)furan-2-ylmethylene]-pyrazolidine-3,5-dione]
- activity at 50 µM [1, 3]: > 50%
- NGF Activity % Maximal Binding ([2]; Table 4): * (50 < *)

Structure (SMILES): O=C1NC(=S)N/C1=C/c1ccc(-c2ccc(Cl)c(C(=O)O)c2)o1 [Compound 85, 2-Chloro-5-[5-(5-oxo-2-thioxo-imidazolidin-4-ylidenemethyl)furan-2-yl]benzoic_acid]
- activity at 50 µM ([1]; Table 3, test compound 50 μM, 0.5 nM 125I-BDNF, PC12 cells, 2 h at 4° C., specific binding as percent of control): > 50%
- NGF Activity % Maximal Binding ([2]; Table 3): X (40 < X < 50)
